Test results: ChEMBL document CHEMBL1124865, “Synthesis and biological evaluation of a series of parenteral 3'-quaternary ammonium cephalosporins” (J Med Chem, 1990)
In brackets after ≈: the same amount, converted by molar mass.

Assays:
Format in all cases: functional
[1] = tested on: Klebsiella pneumoniae; assay: microbe, parasite or virus in culture; details: Klebsiella pneumoniae; read-out: MIC
Description: Antibacterial activity against Klebsiella pneumoniae 1082E

[2] = tested on: Streptococcus pyogenes; assay: Antibacterial activity against Streptococcus pyogenes; details: Streptococcus pyogenes; read-out: MIC
[3] = tested on: Streptococcus pneumoniae; assay: Antibacterial activity against Streptococcus pneumoniae; details: Streptococcus pneumoniae; read-out: MIC
[4] = tested on: Staphylococcus aureus; assay: Antibacterial activity against penicillin G resistance Staphylococcus aureus; details: Staphylococcus aureus; read-out: MIC
[5] = tested on: Escherichia coli; assay: Antibacterial activity against Escherichia coli EC14; details: Escherichia coli; read-out: MIC
[6] = tested on: Escherichia coli; assay: Antibacterial activity against Escherichia coli TEM; details: Escherichia coli; read-out: MIC
[7] = tested on: Serratia marcescens; assay: Antibacterial activity against Serratia marcescens SE3; details: Serratia marcescens; read-out: MIC
[8] = tested on: Pseudomonas aeruginosa; assay: Antibacterial activity against Pseudomonas aeruginosa PS18; details: Pseudomonas aeruginosa; read-out: MIC
[9] = tested on: Staphylococcus aureus; assay: Antibacterial activity against penicillin G susceptible Staphylococcus aureus; details: Staphylococcus aureus; read-out: MIC
[10] = tested on: Pseudomonas aeruginosa; assay: Antibacterial activity against Pseudomonas aeruginosa X528
[11] = tested on: Enterobacter cloacae; assay: Antibacterial activity against Enterobacter cloacae 265A; details: Enterobacter cloacae; read-out: MIC
[12] = tested on: Klebsiella pneumoniae; assay: Antibacterial activity against Klebsiella pneumoniae X26; details: Klebsiella pneumoniae; read-out: MIC
[13] = tested on: Enterococcus faecium; assay: Antibacterial activity against Enterococcus faecium; details: Enterococcus faecium; read-out: MIC
[14] = tested on: Enterobacter cloacae; assay: Antibacterial activity against Enterobacter cloacae EB5; details: Enterobacter cloacae; read-out: MIC
[15] = Pseudomonas aeruginosa, read-out: MIC

| SMILES | MIC [1] | MIC [2] | MIC [3] | MIC [4] | MIC [5] | MIC [6] | MIC [7] | MIC [8] | MIC [9] | MIC [10, 15] | MIC [11] | MIC [12] | MIC [13] | MIC [14] | MIC [10] |
| --- | --- | --- | --- | --- | --- | --- | --- | --- | --- | --- | --- | --- | --- | --- | --- |
| CO/N=C(\C(=O)N[C@@H]1C(=O)N2C(C(=O)[O-])=C(C[n+]3ccc4[nH]cnc4c3)CS[C@H]12)c1csc(N)n1 | 8 µg/mL (≈ 15.5 µM) | 0.008 µg/mL (≈ 0.0155 µM) | 0.008 µg/mL (≈ 0.0155 µM) | 2 µg/mL (≈ 3.89 µM) | 0.008 µg/mL (≈ 0.0155 µM) | 0.008 µg/mL (≈ 0.0155 µM) | 0.125 µg/mL (≈ 0.243 µM) | 8 µg/mL (≈ 15.5 µM) | 2 µg/mL (≈ 3.89 µM) | 2 µg/mL (≈ 3.89 µM) | 8 µg/mL (≈ 15.5 µM) | 0.008 µg/mL (≈ 0.0155 µM) | – | – | – |
| CO/N=C(\C(=O)N[C@@H]1C(=O)N2C(C(=O)[O-])=C(C[n+]3ccc4[nH]c(-c5ccccc5)nc4c3)CS[C@H]12)c1csc(N)n1 | 2 µg/mL (≈ 3.39 µM) | 0.008 µg/mL (≈ 0.0135 µM) | 0.008 µg/mL (≈ 0.0135 µM) | 8 µg/mL (≈ 13.5 µM) | – | – | 1 µg/mL (≈ 1.69 µM) | 128 µg/mL (≈ 217 µM) | 2 µg/mL (≈ 3.39 µM) | – | – | 0.015 µg/mL (≈ 0.0254 µM) | 128 µg/mL (≈ 217 µM) | 0.5 µg/mL (≈ 0.847 µM) | – |
| C=Cc1sc[n+](CC2=C(C(=O)[O-])N3C(=O)[C@@H](NC(=O)/C(=N\OC)c4csc(N)n4)[C@H]3SC2)c1C | 4 µg/mL (≈ 7.68 µM) | 0.03 µg/mL (≈ 0.0576 µM) | 0.06 µg/mL (≈ 0.115 µM) | 4 µg/mL (≈ 7.68 µM) | 0.06 µg/mL (≈ 0.115 µM) | 0.03 µg/mL (≈ 0.0576 µM) | 0.25 µg/mL (≈ 0.48 µM) | 32 µg/mL (≈ 61.5 µM) | 2 µg/mL (≈ 3.84 µM) | 16 µg/mL (≈ 30.7 µM) | 4 µg/mL (≈ 7.68 µM) | 0.06 µg/mL (≈ 0.115 µM) | 32 µg/mL (≈ 61.5 µM) | 0.25 µg/mL (≈ 0.48 µM) | – |
| CO/N=C(\C(=O)N[C@@H]1C(=O)N2C(C(=O)[O-])=C(C[n+]3ccc4[nH]c(-c5cccs5)nc4c3)CS[C@H]12)c1csc(N)n1 | 4 µg/mL (≈ 6.7 µM) | 0.008 µg/mL (≈ 0.0134 µM) | 0.008 µg/mL (≈ 0.0134 µM) | 8 µg/mL (≈ 13.4 µM) | – | – | 1 µg/mL (≈ 1.68 µM) | 128 µg/mL (≈ 215 µM) | 2 µg/mL (≈ 3.35 µM) | – | – | 0.015 µg/mL (≈ 0.0251 µM) | 128 µg/mL (≈ 215 µM) | 0.5 µg/mL (≈ 0.838 µM) | – |
| CO/N=C(\C(=O)N[C@@H]1C(=O)N2C(C(=O)[O-])=C(C[n+]3ccc4scnc4c3)CS[C@H]12)c1csc(N)n1 | 4 µg/mL (≈ 7.52 µM) | 0.015 µg/mL (≈ 0.0282 µM) | 0.015 µg/mL (≈ 0.0282 µM) | 8 µg/mL (≈ 15 µM) | 0.015 µg/mL (≈ 0.0282 µM) | – | – | 4 µg/mL (≈ 7.52 µM) | 1 µg/mL (≈ 1.88 µM) | 1 µg/mL (≈ 1.88 µM) | 8 µg/mL (≈ 15 µM) | 0.015 µg/mL (≈ 0.0282 µM) | – | – | – |
| CO/N=C(\C(=O)N[C@@H]1C(=O)N2C(C(=O)[O-])=C(C[n+]3ccc4sc(N)cc4c3)CS[C@H]12)c1csc(N)n1 | 2 µg/mL (≈ 3.67 µM) | 0.015 µg/mL (≈ 0.0275 µM) | < 0.008 µg/mL | 4 µg/mL (≈ 7.33 µM) | 0.015 µg/mL (≈ 0.0275 µM) | 0.03 µg/mL (≈ 0.055 µM) | 0.06 µg/mL (≈ 0.11 µM) | 4 µg/mL (≈ 7.33 µM) | 0.5 µg/mL (≈ 0.916 µM) | 1 µg/mL (≈ 1.83 µM) | 8 µg/mL (≈ 14.7 µM) | < 0.008 µg/mL | > 128 µg/mL | 0.06 µg/mL (≈ 0.11 µM) | – |
| CO/N=C(\C(=O)N[C@@H]1C(=O)N2C(C(=O)[O-])=C(C[n+]3cc(C)c4ccccc4c3)CS[C@H]12)c1csc(N)n1 | 8 µg/mL (≈ 14.9 µM) | < 0.008 µg/mL | < 0.008 µg/mL | 2 µg/mL (≈ 3.71 µM) | 0.06 µg/mL (≈ 0.111 µM) | 0.03 µg/mL (≈ 0.0557 µM) | 0.25 µg/mL (≈ 0.464 µM) | 16 µg/mL (≈ 29.7 µM) | 1 µg/mL (≈ 1.86 µM) | 4 µg/mL (≈ 7.43 µM) | 2 µg/mL (≈ 3.71 µM) | 0.015 µg/mL (≈ 0.0278 µM) | > 128 µg/mL | 0.25 µg/mL (≈ 0.464 µM) | – |
| CO/N=C(\C(=O)N[C@@H]1C(=O)N2C(C(=O)[O-])=C(C[n+]3ccc(CC(=O)NO)cc3)CS[C@H]12)c1csc(N)n1 (stereo in doubt; 19) | – | – | – | – | – | – | – | – | – | – | – | – | – | – | 2 µg/mL (≈ 3.65 µM) |
| CO/N=C(\C(=O)N[C@@H]1C(=O)N2C(C(=O)O)=C(COC(C)=O)CS[C@H]12)c1csc(N)n1 [CEFOTAXIME] | 1 µg/mL (≈ 2.2 µM) | 0.015 µg/mL (≈ 0.0329 µM) | 0.015 µg/mL (≈ 0.0329 µM) | 16 µg/mL (≈ 35.1 µM) | 0.03 µg/mL (≈ 0.0659 µM) | 0.03 µg/mL (≈ 0.0659 µM) | 0.25 µg/mL (≈ 0.549 µM) | 64 µg/mL (≈ 141 µM) | 2 µg/mL (≈ 4.39 µM) | 32 µg/mL (≈ 70.3 µM) | 32 µg/mL (≈ 70.3 µM) | 0.008 µg/mL (≈ 0.0176 µM) | > 128 µg/mL | 0.25 µg/mL (≈ 0.549 µM) | – |
| CCc1nc2c[n+](CC3=C(C(=O)[O-])N4C(=O)[C@@H](NC(=O)/C(=N\OC)c5csc(N)n5)[C@H]4SC3)ccc2s1 | 2 µg/mL (≈ 3.57 µM) | 0.008 µg/mL (≈ 0.0143 µM) | 0.008 µg/mL (≈ 0.0143 µM) | 4 µg/mL (≈ 7.15 µM) | 0.015 µg/mL (≈ 0.0268 µM) | 0.015 µg/mL (≈ 0.0268 µM) | – | 16 µg/mL (≈ 28.6 µM) | 1 µg/mL (≈ 1.79 µM) | 4 µg/mL (≈ 7.15 µM) | 4 µg/mL (≈ 7.15 µM) | 0.008 µg/mL (≈ 0.0143 µM) | 128 µg/mL (≈ 229 µM) | – | – |
| CO/N=C(\C(=O)N[C@@H]1C(=O)N2C(C(=O)[O-])=C(C[n+]3ccc4oc(C)nc4c3)CS[C@H]12)c1csc(N)n1 | 4 µg/mL (≈ 7.55 µM) | 0.015 µg/mL (≈ 0.0283 µM) | 0.015 µg/mL (≈ 0.0283 µM) | 8 µg/mL (≈ 15.1 µM) | – | – | – | 8 µg/mL (≈ 15.1 µM) | 1 µg/mL (≈ 1.89 µM) | 4 µg/mL (≈ 7.55 µM) | 8 µg/mL (≈ 15.1 µM) | 0.015 µg/mL (≈ 0.0283 µM) | 128 µg/mL (≈ 242 µM) | – | – |
